Test results: patent US9273043B2, “TRPV1 antagonists including dihydroxy substituent and uses thereof” (Purdue Pharma L.P., priority 2011, dated 2016)

What was measured:
[1] = target: human TRPV1 (Homo sapiens (Human), UniProt Q8NER1); test: Human TRPV1 heat-based assay, hTRPV1/CHO cells (hHeat-CHO); assay type: cell-based; conditions: temperature ramp 25 to 45 °C, mean ± SEM
Protocol: Human TRPV1 Heat-based Assay:
CHO cells stably expressing human TRPV1 (hTRPV1) were used. Functional assessment of heat-induced activation of hTRPV1 was carried out in a cell-based Ca^2+ flux assay using ABI7500 Fast Real-Time PCR System as described in Reubish et al., “Functional assessment of temperature-gated ion-channel activity using a real-time PCR machine,” www.BioTechniques.com 47(3):iii-ix (2009), which is hereby incorporated by reference. Briefly, hTRPV1/CHO cells were cultured in growth media in a tissue culture dish at 37° C. in a CO2 incubator. On the day of the assay, culture media were removed and the cells were then detached using 0.05% trypsin at 37° C. with 5% CO2, for 90 s. The detached cells were centrifuged (1000 rpm, 4 min) to remove trypsin-containing supernatant and resuspended in assay buffer (115 mM NaCl, 5.4 mM KCl, 0.8 mM MgCl2.6H2O, 1.8 mM CaCl2.2H2O, 13.8 mM D-glucose, and 20 mM HEPES). Then, the cells were loaded with 5 μM Fluo-4, a Ca^2+ reporter dye, in the presence of 2.5 mM probenecid at 37° C. with 5% CO2, for 45 min. Thereafter, the cells were washed twice with measuring buffer (assay buffer supplemented with 0.1% BSA and 3.2 mM CaCl2) then transferred to a Fast 96-well Reaction Plate (0.1 mL) (Part no. 4346907, MICROAMP, Applied Biosystems, Foster City, Calif.). The cell density was 100,000 cells/24 μL/well. A solution of the compound under test (6 μL/well) was added into each well of the 96-well plate. Thus, the reaction volume per well was 30 μL.
The plates were then placed inside an ABI7500 Fast Real-Time PCR instrument (Applied Biosystems) to read fluorescence at different temperatures using 7500 software, version 2.0.2 (Applied Biosystems). The initial temperature was set at 25° C. for 1 min. followed by a temperature ramp to 45° C. in 100 s to deliver heat to cells. [Ca^2+], response of hTRPV1/CHO cells to heat was determined as: [fluorescence read at 45° C.−fluorescence read at 25° C.].
Compound concentration response curves and IC50 values were analyzed using GraphPad Prism 4 software (GraphPad Software, La Jolla, Calif.).
The IC50 data provided in Table 6 are shown as mean±standard error of the mean; the number of trials conducted for each assay is shown in parentheses except for only a single trial where no number of trials is shown in parentheses.

[2] = In vivo assay of body temperature increase (rectal body temperature); set-up: species or system rat; conditions: rats, oral, 10 mL/kg of 1 mg/mL in 0.5% methylcellulose; greatest ΔTb versus vehicle control at 0.5, 1 or 2 hrs
Summary of the method: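 Male Crl/SD rats (7 weeks), acclimated and preselected for rectal temperature 37.0–37.7° C., given compound orally once at 1 mg/mL in 0.5% methylcellulose, 10 mL/kg. Rectal temperature by thermistor at 0.5, 1 and 2 h post-dose; ΔTb = treated group mean minus vehicle group mean, maximum across time points reported.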

Chain of human TRPV1 (Q8NER1 whole entry, looked up): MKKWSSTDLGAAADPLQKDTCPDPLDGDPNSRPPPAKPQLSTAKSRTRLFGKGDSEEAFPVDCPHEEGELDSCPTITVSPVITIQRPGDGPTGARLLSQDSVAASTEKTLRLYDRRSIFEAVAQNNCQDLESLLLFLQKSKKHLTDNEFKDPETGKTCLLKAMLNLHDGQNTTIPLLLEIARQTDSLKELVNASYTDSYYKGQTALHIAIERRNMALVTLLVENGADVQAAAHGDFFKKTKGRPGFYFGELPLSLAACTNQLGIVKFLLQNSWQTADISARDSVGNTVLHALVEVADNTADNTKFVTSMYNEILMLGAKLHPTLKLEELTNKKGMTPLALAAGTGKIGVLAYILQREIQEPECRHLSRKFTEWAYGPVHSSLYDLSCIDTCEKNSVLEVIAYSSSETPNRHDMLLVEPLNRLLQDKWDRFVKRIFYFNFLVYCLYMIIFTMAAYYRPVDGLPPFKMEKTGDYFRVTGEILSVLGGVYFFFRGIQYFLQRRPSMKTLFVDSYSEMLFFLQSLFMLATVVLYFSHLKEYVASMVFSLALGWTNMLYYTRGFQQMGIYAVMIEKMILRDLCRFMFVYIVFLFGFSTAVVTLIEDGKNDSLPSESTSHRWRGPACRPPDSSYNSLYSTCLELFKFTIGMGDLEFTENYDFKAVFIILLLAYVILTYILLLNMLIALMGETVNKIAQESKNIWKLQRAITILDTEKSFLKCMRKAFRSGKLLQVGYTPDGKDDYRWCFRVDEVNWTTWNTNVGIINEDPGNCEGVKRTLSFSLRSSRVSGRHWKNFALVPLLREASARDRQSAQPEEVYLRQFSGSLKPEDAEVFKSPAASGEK

IC50 [1] [nM] | ΔTb, body temperature increase [2] [°C] | SMILES
 | 0.4 | C[C@H]1CN(c2ncc([C@H](O)CO)cc2F)CCN1C(=O)Nc1nc2ccccc2s1 [A122(a), (S)—N-(benzo[d]thiazol-2-yl)-4-(5-((S)-1,2-dihydroxyethyl)-3-fluoropyridin-2-yl)-2-methylpiperazine-1-carboxamide]
389 ± 83 | 0.1 | C[C@@H]1CN(C(=O)Nc2nc3ccc(F)cc3s2)CCN1c1ncc([C@H](O)CO)cc1F [A125(b), (R)-4-{5-[(S)-1,2-dihydroxyethyl]-3-fluoropyridin-2-yl}-N-(6-fluorobenzo[d]thiazol-2-yl)-3-methylpiperazine-1-carboxamide]
 | 0.2 | Cc1ccc2nc(NC(=O)N3CCN(c4ncc([C@H](O)CO)cc4F)C[C@@H]3C)sc2c1 [A126(a), (S)-4-(5-((S)-1,2-dihydroxyethyl)-3-fluoropyridin-2-yl)-2-methyl-N-(6-methylbenzo[d]thiazol-2-yl)piperazine-1-carboxamide]
 | 0.4 | C[C@H]1CN(c2ncc([C@H](O)CO)cc2F)CCN1C(=O)Nc1nc2cc(F)c(F)cc2s1 [A158(a), (S)—N-(5,6-difluorobenzo[d]thiazol-2-yl)-4-(5-((S)-1,2-dihydroxyethyl)-3-fluoropyridin-2-yl)-2-methylpiperazine-1-carboxamide]

Further lines, the compound ahead of its results:

SMILES | IC50 [1] [nM] | ΔTb, body temperature increase [2] [°C]
C[C@H](O)[C@@H](O)c1cnc(N2CCN(C(=O)Nc3nc4ccc(F)cc4s3)CC2)c(Cl)c1 [C4(r), 4-{3-Chloro-5-[(1S,2S)-1,2-dihydroxypropyl]pyridin-2-yl}-N-(6-fluorobenzo[d]thiazol-2-yl)piperazine-1-carboxamide] | 87 ± 13 | 0.3
Cc1cc2nc(NC(=O)N3CCN(c4ncc([C@H](O)[C@H](C)O)cc4F)CC3)sc2cc1C [C170(r), 4-(5-((1S,2S)-1,2-dihydroxypropyl)-3-fluoropyridin-2-yl)-N-(5,6-dimethylbenzo[d]thiazol-2-yl)piperazine-1-carboxamide] | 170 ± 20 | 0.2
C[C@H](O)[C@@H](O)c1cnc(N2CCN(C(=O)Nc3nc4ccc(F)cc4s3)CC2)c(F)c1 [C125(r), 4-(5-((1S,2S)-1,2-dihydroxypropyl)-3-fluoropyridin-2-yl)-N-(6-fluorobenzo[d]thiazol-2-yl)piperazine-1-carboxamide] | 335 ± 40 | 0.3
Cc1ccc2nc(NC(=O)N3CCN(c4ncc([C@H](O)[C@H](C)O)cc4F)CC3)sc2c1 [C126(r), 4-[5-((1S,2S)-1,2-Dihydroxy-propyl)-3-fluoro-pyridin-2-yl]piperazine-1-carboxylic acid (6-methyl-benzothiazol-2-yl)-amide] | 155 ± 25 | 0.4
C[C@@H]1CN(C(=O)Nc2nc3cc(F)c(F)cc3s2)CCN1c1ncc([C@H](O)CO)cc1F [AE, (R)—N-(5,6-difluorobenzo[d]thiazol-2-yl)-4-{5-[(S)-1,2-dihydroxyethyl]-3-fluoropyridin-2-yl}-3-methylpiperazine-1-carboxamide] | 101.5 ± 0.8 | 0.5
C[C@H](O)[C@@H](O)c1cnc(N2CCN(C(=O)Nc3nc4cc(F)c(F)cc4s3)C[C@H]2C)c(F)c1 [B158(j), (R)—N-(5,6-difluorobenzo[d]thiazol-2-yl)-4-{5-[(1S,2S)-1,2-dihydroxypropyl]-3-fluoropyridin-2-yl}-3-methylpiperazine-1-carboxamide] |  | 0.1
